From paper PMC3848067 (Acta Naturae, 2013)
Like-named read-outs stand apart in the source and are kept apart here.

Experiments:
cultured cells = settings: cited from earlier work
[1] = cited from earlier work
[2] = extrapolated for single-dose oral administration of 600 mg of phosphonate 2
[3] = rats, intraperitoneal, 20 mg/kg; parameters of phosphonate 2; cited from earlier work
[4] = rats, oral, 20 mg/kg; cited from earlier work
[5] = rabbits; cited from earlier work
rats [6] = settings: Wistar rats, intragastric 133 mg/kg daily, 10 weeks males and 2 weeks females; cited from earlier work
pregnant female rats = settings: intragastric 133 mg/kg daily on days 1–19 of gestation; cited from earlier work
guinea pigs [7] = settings: sensibilizing doses 133 and 266 mg/kg, provoking dose 266 mg/kg on days 14 and 21; cited from earlier work
HIV-1 = settings: cited from earlier work
Salmonella typhimurium = settings: concentrations of up to 1 mg/dish; cited from earlier work
mice [8] = settings: cited from earlier work
[9] = dogs, cited from earlier work; for AUC / Cmax / Cmax/AUC / MRT / t1/2 / tmax: value for the tested compound (2 or its metabolite AZT)
dogs = settings: intragastric, 166 mg/kg daily for 4 weeks; cited from earlier work
[10] = pharmacokinetics after single-dose oral administration to dogs; settings: comparison from Table 2
mouse embryonic cells = settings: doses 50-fold higher than maximum recommended therapeutic dose for humans; cited from earlier work
[11] = dogs, 50 mg (2–5 mg/kg), cited from earlier work
MT-4 cells = settings: MT-4 cell line; cited from earlier work
mice [12] = settings: cited from earlier work; remark: listed apart in the source
[13] = rabbits, single oral dose of 7, 70 and 200 mg/kg; cited from earlier work
[14] = single oral dose of phosphonate 2, 200 mg/kg; cited from earlier work
rats [15] = settings: intragastric, 133 and 266 mg/kg daily for 3 months; cited from earlier work
rats [16] = settings: cited from earlier work
[17] = test system: bone marrow cells of hybrid mice F1(CBAxC57Bl6); settings: doses 50-fold higher than maximum recommended therapeutic dose for humans; cited from earlier work
guinea pigs [18] = settings: doses and sensibilization schemes tested; cited from earlier work
[19] = rabbits, oral course, 1 g in 4–5 ml of water, after 6 and 18 h during 5 days; cited from earlier work
[20] = canine whole blood at 37°С; cited from earlier work
mice [21] = settings: cited from earlier work; remark: listed apart in the source
[22] = single oral dose of capsules of 2, 10 mg/kg
[23] = single oral dose of capsules of 2, 20 mg/kg
[24] = single oral dose of capsules of 2, 40 mg/kg

**Q.** Which “efficiency of penetration into cells, times lower than that of AZT” value (cultured cells) does the source give for `Cc1cn([C@H]2C[C@H](N=[N+]=[N-])[C@@H](COP(=O)(O)C(N)=O)O2)c(=O)[nH]c1=O` [Compound 2, AZT 5’-aminocarbonyl phosphonate] here?
**A.** 10–100 times

**Q.** What about the “efficiency of penetration into cells, times lower than that of phosphazide” value (cultured cells) of the same compound?
**A.** approximately 6 times

**Q.** And the “half-life in 100% human blood serum” value [1]?
**A.** over 6 h

**Q.** And the “expected AZT concentration in human blood plasma” value [2]?
**A.** 100 to 115 ng/mL

**Q.** And the “AUC0–t” value [3]?
**A.** 8020 ng·h/mL

**Q.** What about the MRT [3] of the same compound?
**A.** 0.82 h

**Q.** And the Vss [3]?
**A.** 0.37 L

**Q.** What about the t1/2 [3] of the same compound?
**A.** 0.42 h

**Q.** And the СL [3]?
**A.** 0.45 L/h

**Q.** And the “original phosphonate 2 in blood plasma” value [4]?
**A.** No original phosphonate 2 was detected

**Q.** And the “AZT in peripheral blood after intravenous administration” value [5]?
**A.** AZT has not been detected

**Q.** And the “effect on animal reproduction function” value (rats [6])?
**A.** no effects

**Q.** And the “embryotoxic and teratogenic effects” value (pregnant female rats)?
**A.** neither embryotoxic nor teratogenic effects

**Q.** What about the anaphylactic shock (guinea pigs [7]) of the same compound?
**A.** no anaphylactic shock

**Q.** What about the “antiviral activity (inhibition of viral replication) relative to AZT” value (HIV-1; HIV-infected MT-4 cells) of the same compound?
**A.** inferior to that of AZT by about an order of magnitude

**Q.** And the “antiviral activity, times lower than that of phosphazide” value (HIV-1; MT-4 cell line)?
**A.** 3–4.5 times

**Q.** And the “selectivity index compared to AZT and phosphazide” value (HIV-1; MT-4 cell line)?
**A.** higher

**Q.** What about the “number of revertants in the Ames test” value (Salmonella typhimurium) of the same compound?
**A.** does not increase the number of revertants

**Q.** What about the “popliteal lymph node reaction” value (mice [8]) of the same compound?
**A.** not to affect the popliteal lymph node reaction

**Q.** What about the “bioavailability of 5’-aminocarbonyl phosphonate 2” value ([9]; administered orally at specified doses) of the same compound?
**A.** 4.7%

**Q.** What about the “bioavailability of AZT after 2 had been administered orally” value ([9]; oral) of the same compound?
**A.** 8%

**Q.** And the AUC [9, 22]?
**A.** 470 ± 150 ng·h/mL

**Q.** What about the Cmax [9, 22] of the same compound?
**A.** 310 ± 90 ng/mL

**Q.** What about the Cmax/AUC [9, 22] of the same compound?
**A.** 0.662 ± 0.066 h⁻¹

**Q.** What about the MRT [9, 22] of the same compound?
**A.** 2.43 ± 0.04 h

**Q.** What about the t1/2 [9, 22] of the same compound?
**A.** 0.62 ± 0.1 h

**Q.** And the tmax [9, 22]?
**A.** 1.5 ± 0.25 h

**Q.** What about the AUC [9, 23] of the same compound?
**A.** 980 ± 440 ng·h/mL

**Q.** And the Cmax [9, 23]?
**A.** 510 ± 180 ng/mL

**Q.** What about the Cmax/AUC [9, 23] of the same compound?
**A.** 0.561 ± 0.122 h⁻¹

**Q.** What about the MRT [9, 23] of the same compound?
**A.** 2.65 ± 0.16 h

**Q.** What about the t1/2 [9, 23] of the same compound?
**A.** 0.81 ± 0.2 h

**Q.** What about the tmax [9, 23] of the same compound?
**A.** 1.6 ± 0.2 h

**Q.** And the AUC [9, 24]?
**A.** 1250 ± 860 ng·h/mL

**Q.** And the Cmax [9, 24]?
**A.** 510 ± 260 ng/mL

**Q.** What about the Cmax/AUC [9, 24] of the same compound?
**A.** 0.478 ± 0.117 h⁻¹

**Q.** What about the MRT [9, 24] of the same compound?
**A.** 2.87 ± 0.49 h

**Q.** And the t1/2 [9, 24]?
**A.** 0.59 ± 0.2 h

**Q.** And the tmax [9, 24]?
**A.** 1.75 ± 0.27 h

**Q.** What about the “tmax of AZT” value ([9]; single oral dose of the named compound equivalent to 20 mg of AZT/kg) of the same compound?
**A.** 4 h

**Q.** What about the “tolerability, capsules” value (dogs) of the same compound?
**A.** well-tolerated by the animals

**Q.** And the “Cmax of AZT, times lower than for phosphazide” value [10]?
**A.** 2.5 times

**Q.** What about the “dominant lethal mutations in mouse embryonic cells” value (mouse embryonic cells) of the same compound?
**A.** nor affected the number of dominant lethal mutations

**Q.** And the “AZT in blood plasma after intravenous administration” value [11]?
**A.** No AZT has been detected

**Q.** And the AUC t ([11]; intravenous, parameters of 2)?
**A.** 2190 ng·h/mL

**Q.** And the CL ([11]; intravenous, parameters of 2)?
**A.** 16.8 L/h

**Q.** What about the MRT ([11]; intravenous, parameters of 2) of the same compound?
**A.** 0.74 h

**Q.** What about the Vss ([11]; intravenous, parameters of 2) of the same compound?
**A.** 12.4 L

**Q.** And the t1/2 ([11]; intravenous, parameters of 2)?
**A.** 0.35 h

**Q.** And the “toxicity, times lower than that of AZT” value (MT-4 cells)?
**A.** 34–50 times

**Q.** And the “toxicity, times lower than that of phosphazide” value (MT-4 cells)?
**A.** 12.5–15 times

**Q.** What about the primary immune response (mice [12]; F1(CBAxC57BI6) mice, 332 mg/kg) of the same compound?
**A.** reduced the primary immune response to a certain extent

**Q.** What about the “hypersensitivity of the decelerated type reaction” value (mice [12]; mice, 166 and 332 mg/kg) of the same compound?
**A.** nor the hypersensitivity of the decelerated type reaction

**Q.** And the “number of nuclear cells in spleen” value (mice [12]; mice, 166 and 332 mg/kg)?
**A.** affects neither the number of nuclear cells in spleen

**Q.** And the “presence of AZT in blood” value [13]?
**A.** AZT is present in the blood in all the cases

**Q.** And the “original substance in daily urine and feces” value [14]?
**A.** could not be detected

**Q.** And the “tolerability, chronic administration” value (rats [15])?
**A.** well-tolerated by animals

**Q.** What about the “signs after single-dose administration at toxic doses” value (rats [16]; rats, 2000–50000 mg/kg) of the same compound?
**A.** short-term agitation in animals replaced by distress, inertness and adynamia

**Q.** What about the LD50 (rats [16]; single-dose intragastric administration to rats) of the same compound?
**A.** higher than 40 g/kg

**Q.** What about the “chromosomal aberrations in mouse bone marrow cells” value [17] of the same compound?
**A.** neither caused an increase in the number of chromosomal aberrations

**Q.** What about the “allergic effect in type III hypersensitivity reaction” value (guinea pigs [18]) of the same compound?
**A.** no allergic effect

**Q.** What about the accumulation in blood [19] of the same compound?
**A.** gradual accumulation

**Q.** What about the “Т1/2 in canine whole blood” value [20] of the same compound?
**A.** > 24 h

**Q.** What about the “mean lethal dose (LD50)” value (mice [21]; intraperitoneal administration to mice) of the same compound?
**A.** ≥ 5000 mg/kg

**Q.** What about the “signs after single-dose administration at toxic doses” value (mice [21]; mice, 2000–50000 mg/kg) of the same compound?
**A.** short-term agitation in animals replaced by distress, inertness and adynamia
